Source: patent US6660530B2, “Methods for labeling β-amyloid plaques and neurofibrillary tangles” (The Regents of the University of California, priority 1998, dated 2003)
Entries after “also recorded” stand apart in the source; their conditions may differ. Each block holds one compound with its values, some of them ahead of it.

Experiments:
[1] = biological target: T1, plaque in Tg2576 HuAPPsw transgenic mouse brain (Homo sapiens, UniProt P05067); experiment: In vitro fluorescence labeling of transgenic mouse brain section; assay type: binding
T1 construct: from tissue; host or cells: brain section of Tg2576 HuAPPsw transgenic mouse
T1 sequence (P05067 672-713 limits assumed): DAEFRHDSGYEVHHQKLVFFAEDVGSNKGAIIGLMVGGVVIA
Experimental: A 2.1 mg/mL DDNP stock solution was prepared, which was adjusted to 8 mM in 100% ethanol. A DDNP working solution was prepared by diluting the stock solution with distilled water in a ratio of 1:100-1000 (stock solution:distilled water). β-amyloid 250 μM (1.25 mg/mL in distilled water) was aggregated at 37° C. for 48 hours. 5 μL were smeared on slides, air-dried and then rehydrated with distilled water. Alternatively, Aβ-positive brain tissue sections were rehydrated with distilled water. DDNP working solution was applied to each slide for 30 minutes at room temperature. The slides were washed three times for five minutes with distilled water. The slides were coverslipped with fluorescent protectant mounding media (VectashieldTM, available Vector Labs., Burlingame, Calif.) and observed under a fluorescence microscope with a thioflavin S or FITC filter.

[2] = Storage of stock solution in the freezer; assay type: physicochemical; details: stock in 100% ethanol, used at 1/100 to 1/1,000 dilutions
Experimental: (§1) A 2.1 mg/mL DDNP stock solution was prepared, which was adjusted to 8 mM in 100% ethanol. A DDNP working solution was prepared by diluting the stock solution with distilled water in a ratio of 1:100-1000 (stock solution:distilled water).

β-amyloid 1-40 = biological target: T2, β-amyloid 1-40 (Homo sapiens, UniProt P05067); experiment: Labeling of aggregated β-amyloid dried onto a slide; assay type: binding; details: aggregated 8 days at 37° C., dried onto gelatin coated slide
T2 construct: an aliquot of β-amyloid 1-40 was allowed to aggregate
T2 sequence (P05067 672-711 limits assumed): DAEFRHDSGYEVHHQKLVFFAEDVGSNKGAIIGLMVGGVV
Experimental: […] 5 μL were smeared on slides, air-dried and then rehydrated with distilled water. Alternatively, Aβ-positive brain tissue sections were rehydrated with distilled water. DDNP working solution was applied to each slide for 30 minutes at room temperature. The slides were washed three times for five minutes with distilled water. The slides were coverslipped with fluorescent protectant mounding media (Vectashield™, available Vector Labs., Burlingame, Calif.) and observed under a fluorescence microscope with a thioflavin S or FITC filter.

[3] = biological target: T3, aggregated β-amyloid 1-40 injected into rat cortex (Homo sapiens, UniProt P05067); experiment: In vivo labeling of aggregated β-amyloid injected into rat cortex
T3 construct: an aliquot of β-amyloid 1-40 was allowed to aggregate
T3 sequence (P05067 672-711 limits assumed): as above
Experimental: β-amyloid 250 μM (1.25 mg/mL in distilled water) was aggregated at 37° C. for 48 hours to produce fibrils confirmed by smears. Three rats were anesthetized. 3 μL of a solution of Aβ fibrils (1.25 μg/μL) were injected unilaterally into the cortex of each rat (Bregma 0, AP-4.1 mm, ML+2.0 mm, DV-3.1 mm). Then 3 μL of phosphate buffered saline (PBS) were injected into the contralateral side of each rat brain as a vehicle control. After injection, the needle remained for 5 minutes to prevent reflux, and then the cranial hole was sealed with bone wax. […]
[…] Additional immersion fixation of rat brain was at 4° C. overnight with PLP fixative. The rat brains were washed with PBS, saturated in 10 and 20% sucrose, and snap frozen in chilled isopentane (−70° C.) with liquid nitrogen. The brains were cryostat sectioned at […] around the needle-track and directly coverslipped with glycerol and fluorescence protectant (Vectashield™).

[4] = system: β-amyloid plaques and neurofibrillary tangles; experiment: In vitro fluorescence labeling of Alzheimer's disease brain tissue sections; assay type: binding, human; details: for visualization of neurofibrillary tangles, amyloid peptides and diffuse amyloid: all Alzheimer's disease brain specimens, fluorescence; for fluorescent labeling of amyloid plaques: sections of Alzheimer's disease patient brain, fluorescence microscope
Experimental: as §1
β-amyloid 250 μM (1.25 mg/mL in distilled water) was aggregated at 37° C. for 48 hours. 5 μL were smeared on slides, air-dried and then rehydrated with distilled water. Alternatively, Aβ-positive brain tissue sections were rehydrated with distilled water. DDNP working solution was applied to each slide for 30 minutes at room temperature. The slides were washed three times for five minutes with distilled water. The slides were coverslipped with fluorescent protectant mounding media (Vectashield™, available Vector Labs., Burlingame, Calif.) and observed under a fluorescence microscope with a thioflavin S or FITC filter.
Since DDNP and its derivatives are fluorescent, an evaluation of the ability of [F-18]FDDNP to label β-amyloid plaques and neurofibrillary tangles in vitro was also performed with the same brain specimens.
In FIG. 5, the central image was obtained by immunostaining a forty five micrometer cryostate temporal cortex section of an Alzheimer's disease patient incubated with AT8 (anti-phosphotau) and 10G4 (anti-AB1-15) at 1:800. Insets are adjacent sections of the same Alzheimer's disease brain specimen stained with FDDNP. Images were generated using fluorescent scanning microscopy. Green arrows indicate approximate origin of inset with reference to central immunostaining section.

[5] = system: β-amyloid plaques and neurofibrillary tangles; experiment: PET imaging of patients after intravenous [F-18]FDDNP; assay type: in vivo, human
Experimental: A patient was placed in a tomograph to obtain brain dynamic PET images. 8.0 mCi of 2-(1.1-dicyanopropen-2-yl)-6-(2-[^18F]-fluoroethyl)-methylamino)-naphthalene ([F18]FDDNP) (specific activity: 5-12 Ci/micromol; mass:˜1 nanomol), prepared as described in Example 1(f), were injected intravenously into the arm of the patient. Dynamic acquisition data of brain images were recorded simultaneously in forty-seven brain planes for two hours.
Labeling and detection of human β-amyloid plaques and neurofibrillary tangles in vivo were conducted using the following procedures. Ten human subjects, seven Alzheimer's diseased patients (ages 71 to 80) and three control patients (ages 62 to 82) were studied. The patients were positioned supine in an EXACT HR+962 tomograph (Siemens-CTI, Knoxville, Tenn.) with the imaging plane parallel to the orbito-meatal line. Venous catheterization was performed, and then [F-18]FDDNP (5-10 mCi) in human serum albumin (25%) was administered as a bolus via the venous catheter. Sequential emission scans were obtained beginning immediately after [F-18]FDDNP administration using the following scan sequence: six 30 second scans, four 3 minute scans, five 10 minute scans, and three 20 minute scans. Rapid venous blood sampling was performed via the indwelling catheter in two subjects for input function determination and plasma metabolite analysis.
The residence time shown is in reference to that in the pons, an area known to have limited involvement in Alzheimer's disease pathology. The residence time was calculated from the clearance rates of the tracer in affected regions of interest (ROI) and in the pons as:
Residence time=[1/clearance rate for affected ROI]−[1/clearance rate for pons]
Separate ROIs were defined in entorhinal cortex, hippocampus, lateral temporal cortex and pons. The region with the slowest clearance rate was used as the affected ROI in the calculation of the residence time shown in FIG. 4.

[6] = system: β-amyloid plaques and neurofibrillary tangles; experiment: In vitro autoradiography with brain specimens of Alzheimer diseased patients; assay type: binding, human
[7] = biological target: amyloid plaques in Alzheimer's brain (Homo sapiens, UniProt P05067); details: cited from earlier work
amyloid plaques in Alzheimer's brain, sequence (P05067 672-713 limits assumed): as the sequence (P05067 672-713 limits assumed) above

[8] = Standing of the free base at room temperature after neutralization (TLC); assay type: physicochemical; details: light yellow oil after NaHCO3 wash
Experimental: Dichloromethane (10 mL) was added and the solution was washed with saturated NaHCO3 solution, dried, and evaporated in vacuo. A light yellow oil was obtained, which, on standing at room temperature, turned dark red. […] Selected ^1H NMR signals after neutralization: δ2.72 (s, 3H, CH3), 3.09 and 3.35 (t, J=5 Hz, 8H, piperazine), 7.08 (s, 1H, 5-H), 8.02 (s, 1H, 1-H).

fluorescent labeling of plaque [1]: labeling of a plaque
fluorescent labeling after formic acid treatment of section through the injection site ([3]; rat): removes fluorescent labeling
labeling contralateral to the amyloid injection site ([3]; rat, side where no amyloid is present): weak
passage of the blood brain barrier ([3]; rats): passes the blood brain barrier
melting point: 154.5 to 155 °C
Compound: CC(=C(C#N)C#N)c1ccc2cc(N(C)C)ccc2c1 [DDNP, 2-(1,1-dicyanopropen-2-yl)-6-dimethylaminonaphthalene]
stability of stock solution [2]: can be kept in the freezer for six months and still produce acceptable results
fluorescence of labeled aggregated β-amyloid 1-40 (β-amyloid 1-40): fibrillar fluorescence consistent with amyloid
in vivo fluorescent labeling of injected amyloid ([3]; rat, 100 μL of 640 μM DDNP into the carotid artery, sacrificed after 20 minutes, brain cryosections): fluorescently labeled amyloid at the tip of the need track
visualization of neurofibrillary tangles, amyloid peptides and diffuse amyloid [4]: excellent visualization
fluorescent labeling of tangles ([4]; cortex of the brain of an Alzheimer's disease patient): weak
fluorescent labeling of amyloid plaques [4]: able to label amyloid plaques; also recorded: readily labeled amyloid deposits; also recorded: amyloid plaques labeled; also recorded: strong; also recorded: labeling of a single, large plaque with an amyloid core

Compound: Thioflavin S [reference compound]
fluorescent labeling of amyloid plaques [4]: labeling of a cored plaque

melting point: 153 to 154 °C
Compound: CC(=O)c1ccc2cc(N3CCN(C(=O)OC(C)(C)C)CC3)ccc2c1 [Example 1(d), tert-Butyl-4-(6-acetyl-2-naphthyl)-1-piperazinecarboxylate]

Compound: CC(=C(C#N)C#N)c1ccc2cc(N(C)CC[18F])ccc2c1 [[F-18]FDDNP]
estimated residence time in reference to pons ([5]; Alzheimer's diseased patients vs control patients, affected ROI with slowest clearance rate): different from values in control patients
labeling of brain structures / accumulation of label ([5]; human patient, 8.0 mCi intravenously, dynamic PET for two hours): labels brain by structures in a manner consistent with the presence of beta amyloid plaques and neurofibrillary tangles; also recorded: maximum accumulation
regional clearance from brain ([5]; human, brain areas known to accumulate β-amyloid plaques and neurofibrillary tangles): slower clearance
crossing of the blood brain barrier ([5]; human, intravenous injection): crosses the blood brain barrier readily in proportion to blood flow
retention of activity in hippocampus-amygdala-entorhinal cortex ([5]; human, most cases, even patients with low severity of symptoms): high retention
visualization of neurofibrillary tangles, amyloid peptides and diffuse amyloid [4]: excellent visualization
structures stained (FIG. 5 insets) ([4]; temporal cortex sections of an Alzheimer's disease patient, fluorescent scanning microscopy): (1) neuritic plaques, (2) diffuse plaque, (3) vascular amyloid, (4) dense plaques and tangles, and (5) dense tangles
binding / distribution of activity in autoradiography [6]: Binding was observed in hippocampus, temporal and parietal cortex

Compound: O=C(O)c1cc(/N=N/c2ccc(-c3ccc(/N=N/c4ccc(O)c(C(=O)O)c4)cc3)cc2)ccc1O [Chrysamine G]
ability to label amyloid plaques in Alzheimer's brain [7]: weak

Compound: CC(=C(C#N)C#N)c1ccc2cc(N3CCNCC3)ccc2c1 [2-[1-(6-piperazino-2-naphthyl)ethylidene]malononitrile]
stability on standing at room temperature [8]: decomposition
